Laboratory results taken from publication PMC6112376, “Comprehensive Analyses and Prioritization of Tox21 10K Chemicals Affecting Mitochondrial Function by in-Depth Mechanistic Studies” (Environmental Health Perspectives, 2018).
Structures can show the parent of a compound that is named as a salt. Where two headings read alike, the source gives them in different places.

Tests used:
[1] = system: HepG2 cells; details: for IC50: read-out: MMP assays IC50 (µM) HepG2
[2] = system: rat primary hepatocytes
[3] = system: HepG2 cells; details: cited from earlier work
[4] = system: rat primary hepatocytes; assay: MMP assay in rat primary hepatocytes; details: for IC50: read-out: MMP assays IC50 (µM) Rat Hepatocytes
[5] = read-out: MMP assays IC50 (µM) qHTS-HepG2
[6] = read-out: MMP assays IC50 (µM), qHTS-HepG2
[7] = HepG2 cells, single number from one experiment

Molecule | MMP assays IC50 (µM) HepG2 [1] | MMP assays efficacy (%) HepG2 [1] | MMP assays efficacy (%) Rat Hepatocytes [2] | MMP assays efficacy (%) qHTS-HepG2 [3] | IC50 [3, 5] [µM] | MMP assays IC50 (µM) Rat Hepatocytes [4] | IC50 [1] [µM] | IC50 [3, 6] [µM] | IC50 [4] [µM] | IC50 ([4]; Rattus norvegicus, Hepatocyte) [µM] | MMP assays efficacy (%) HepG2 [1, 7] [%] | IC50 [1, 7] [µM] | MMP assays IC50 (µM) Rat Hepatocytes ([4]; rat hepatocytes, mean ± SD of three experiments) | MMP assays IC50 (µM) qHTS-HepG2 [3]
O=[N+]([O-])c1ccc2nc[nH]c2c1 [Compound 6-Nitrobenzimidazole] | inactive | inactive | inactive | -53±6% | 36.4 ± 10.8 | inactive |  |  |  |  |  |  |  | 
COc1cc(Cl)ccc1Oc1ccc(Cl)cc1Cl [Methyl triclosan] |  | -95% | -95±27% | -79±13% |  |  | 39.8 | 25.5 ± 1.67 | 45.9 ± 14.7 |  |  |  |  | 
Cc1cc(Nc2ccccc2C(=O)O)ccc1Cl |  | -100% | -92±11% | -99±8% | 12.8 ± 0.84 |  | 35.5 |  | 22.7 ± 16.2 |  |  |  |  | 
O=[N+]([O-])c1ccc2ncccc2c1 [Compound 6-Nitroquinoline] | inactive | inactive | -29±7% | -51±5% | 30.7 ± 11.5 |  |  |  |  | 44.8 ± 16.3 |  |  |  | 
Cc1cnc(NC(=O)C2=C(O)c3ccccc3S(=O)(=O)N2C)s1 [Meloxicam] | inactive | inactive | inactive |  |  | inactive |  | 14.5 |  |  |  |  |  | 
Cc1cccc(C)c1OCC(=O)N[C@@H](Cc1ccccc1)[C@@H](O)C[C@H](Cc1ccccc1)NC(=O)[C@H](C(C)C)N1CCCNC1=O [Lopinavir;ABT-738] | inactive | inactive | -27±0% | -66±16% |  |  |  | 32.7 ± 1.32 | 15.4 ± 21.8 |  |  |  |  | 
CC(=O)C1(C)CC2=C(CCCC2(C)C)CC1C (stereo not shown) |  |  | inactive | -50±18% | 27.3 ± 20.4 |  |  |  |  |  | -43 | 35.5 | inactive | 
O=C1OC(=O)C2C1C1(Cl)C(Cl)=C(Cl)C2(Cl)C1(Cl)Cl (stereo not shown) [Chlorendic anhydride] | inactive | inactive | inactive | inactive |  | inactive |  |  |  |  |  |  |  | inactive
c1ccc(C2(N3CCCC3)CCCCC2)cc1 [Rolicyclidine] | inactive | inactive | inactive | -97±15% |  | inactive |  | 22.3 ± 2.32 |  |  |  |  |  | 
Oc1ccc2ccccc2c1N=Nc1ccccc1 [C.I. Solvent yellow 14] |  | -110% | -86±4% | -69±8% | 5.84 ± 2.06 |  | 15.8 |  | 17 ± 10.6 |  |  |  |  | 
Cc1c([N+](=O)[O-])c(C)c([N+](=O)[O-])c(C(C)(C)C)c1[N+](=O)[O-] |  | -24% | inactive | -82±11% | 20.1 ± 6.09 | inactive | 7.94 |  |  |  |  |  |  | 
CCN1\C(=C/C=C/C=C/c2sc3ccccc3[n+]2CC)Sc2ccccc21.[Cl-] [Dithiazanine chloride] |  | -79% | -77±9% | -56±6% | 0.27 |  | 0.15 |  | 2.45 |  |  |  |  | 
CCCC[P+](CCCC)(CCCC)CCCC.[Cl-] [Tetrabutylphosphonium chloride] | inactive | inactive | -108+36% | inactive |  |  |  |  | 15.3 ± 5 |  |  |  |  | inactive
CC(C)C[C@H]1C(=O)N2CCC[C@H]2[C@]2(O)O[C@](NC(=O)[C@@H]3C=C4c5cccc6[nH]c(Br)c(c56)C[C@H]4N(C)C3)(C(C)C)C(=O)N12 [Bromocriptine mesylate] |  | -113% | -74±34% | -111±8% | 11.2 ± 2.78 |  | 13.5 |  | 12.6 ± 1.6 |  |  |  |  | 
CC#C[C@]1(O)CC[C@H]2[C@@H]3CCC4=CC(=O)CCC4=C3[C@@H](c3ccc(N(C)C)cc3)C[C@@]21C | inactive | inactive | inactive | -97±21% |  | inactive |  | 16.1 ± 32.5 |  |  |  |  |  | 
CCCCCCCCCCn1cc[n+](CCCCCCCCCC)c1C.[Cl-] [1,3-Didecyl-2-methylimidazolium chloride] |  | -104% | -110±29% | -83±13% | 3.86 ± 4.19 |  | 3.16 |  | 26.2 ± 3.35 |  |  |  |  | 
O=[N+]([O-])c1cccc2ccccc12 [Compound 1-Nitronaphthalene] | inactive | inactive | -54±17% | -40±7% | 59.7 ± 7.06 |  |  |  |  | 45.9 ± 14.7 |  |  |  | 
O=c1oc2ccccc2c(O)c1C(CC(O)c1ccc(-c2ccc(Br)cc2)cc1)c1ccccc1 (stereo not shown) [Bromadiolone] |  | -108% | -79±51% | -105±3% | 16.7 ± 1.13 |  | 4.35 |  | 3.4 ± 0.83 |  |  |  |  | 
CCCCCc1cc(O)c2c(c1)OC(C)(C)[C@@H]1CCC(C)=C[C@@H]21 |  | -99% | inactive | -124±8% | 4.99 ± 1.66 | inactive | 15.5 |  |  |  |  |  |  | 
Dinocap |  | -100% | -93±7% | -94±10% | 0.34 ± 0.3 |  | 0.63 |  | 4.1 ± 2.16 |  |  |  |  | 
CSc1nc(NC2CC2)nc(NC(C)(C)C)n1 [Cybutryne] | inactive | inactive | -69±43% | -81±18% | 20.9 ± 13.9 |  |  |  | 14.3 ± 16 |  |  |  |  | 
Oc1cc(Cl)c(Cl)cc1Cl.[Na] [2,4,5-Trichlorophenol sodium salt] |  | -98% | -130±56% | -99±23% | 5.05 ± 2.09 |  | 10 |  | 27.3 ± 25.2 |  |  |  |  | 
CNC(=O)c1cc(Oc2ccc(NC(=O)Nc3ccc(Cl)c(C(F)(F)F)c3)cc2)ccn1 |  | -92% | -72±24% |  |  |  | 1.23 | 0.96 ± 0.09 | 2.25 ± 0.63 |  |  |  |  | 
CCCCC(CC)C(=O)[O-].CCCCC(CC)C(=O)[O-].[Ba+2] (stereo not shown) [Barium bis(2-ethylhexanoate)] | inactive | inactive | -43±30% | -58±20% | 15.4 ± 10.3 | inactive |  |  |  |  |  |  |  | 
